The source of these data is US20230339851A1, “CXCR6 SULFONAMIDE COMPOUNDS” (CHEMOCENTRYX, INC., priority 2022, published 2023).

This assay deals with T1, human CXCR6 (Homo sapiens, UniProt O00574).
T1 construct: expressed in transfected cells
As to the kind of experiment: Radioligand Binding Assay (125I-CXCL16 displacement). The note with it: L1.2 cells stably transfected with human CXCR6 cDNA, 0.1 nM 125I-CXCL16, 4° C., three-hour incubation; read-out: Potency (IC50). As to the method:
L1.2 cells stably transfected with human CXCR6 cDNA ([…]) were incubated at 4° C. in HBSS containing 0.1 % BSA and 0.1 nM of ^125I-CXCL16 plus various concentrations of Compound. Following a three-hour incubation period, cells were aspirated onto polyethyleneimine-treated GF/B glass fiber filters (PerkinElmer, Waltham, MA) with a cell harvester (Tomtec, Hamden, CT) and washed twice with washing buffer (25 mM Hepes, 500 mM NaCl, 1 mM CaCI2, 5 mM MgCI2, pH 7.1). Fifty µl of MicroScint-20 (PerkinElmer, Waltham, MA) was added to each well of the filters, and radioactive emissions (cpm) were measured on a Packard TopCount Scintillation counter (PerkinElmer, Waltham, MA). IC50 values were calculated with GraphPad Prism using 3 parameter nonlinear regression. […]

T1 sequence (O00574 whole entry): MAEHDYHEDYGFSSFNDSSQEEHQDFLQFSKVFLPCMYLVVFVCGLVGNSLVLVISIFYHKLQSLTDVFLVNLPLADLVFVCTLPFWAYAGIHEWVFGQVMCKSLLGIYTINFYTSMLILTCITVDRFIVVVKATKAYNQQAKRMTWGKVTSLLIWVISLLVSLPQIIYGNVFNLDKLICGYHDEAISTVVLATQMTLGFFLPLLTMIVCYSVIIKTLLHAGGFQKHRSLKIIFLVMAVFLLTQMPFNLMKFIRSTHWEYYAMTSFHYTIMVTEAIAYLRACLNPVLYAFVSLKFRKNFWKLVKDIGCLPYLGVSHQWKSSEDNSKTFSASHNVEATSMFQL

For the molecule `CCOc1cc(NC(=O)[C@H]2CC=CC[C@H]2C(=O)O)ccc1S(=O)(=O)Nc1ccc(C)c(OC(F)(F)F)c1` (racemic) [Example 1.333], the half-maximal inhibitory concentration (IC50) – broadly, the point on the concentration scale where inhibition reaches its midpoint – lay within 0.75 to 2 µM.

Turning to `CCCc1cc(NC(=O)[C@@H](CO)c2ccccc2)ccc1S(=O)(=O)Nc1cccc(OC(F)(F)F)c1` [Example 1.509], the half-maximal inhibitory concentration (IC50) is ≤ 0.2 µM.

Consider `CCOc1cc(NC(=O)C2CCC[C@@H]2O)ccc1S(=O)(=O)Nc1cccc(OC(F)(F)F)c1` (stereo partly drawn) [Example 1.185], for which the half-inhibitory concentration (IC50) lay within 0.2 to 0.75 µM.

For `CCOc1cc(NC(=O)C(CO)C(C)C)ccc1S(=O)(=O)Nc1cccc(OC(F)(F)F)c1` (stereo not drawn) [Example 1.563], the IC50 was ≤ 0.2 µM.

For the molecule `CCOc1cc(NC(=O)[C@@H](NC(=O)C(F)(F)F)C(C)CC)ccc1S(=O)(=O)Nc1cccc(OC(F)(F)F)c1` (stereo partly drawn) [Example 1.089], the IC50 is ≤ 0.2 µM.

In the case of `CCc1cc(NC(=O)[C@@H](CO)C2CC2)ccc1S(=O)(=O)Nc1cccc(OC(F)(F)F)c1` [Example 1.150], the 50% inhibitory concentration (IC50) is ≤ 0.2 µM.

`CC(=O)N[C@H](C(=O)Nc1ccc(S(=O)(=O)Nc2cccc(OC(F)(F)F)c2)c(C)c1)c1ccccc1` [Example 1.481]: the IC50 is ≤ 0.2 µM.

In the case of `COc1cc(NC(=O)c2ccnn2C)ccc1S(=O)(=O)Nc1ccc(OC(F)(F)F)c(C)c1` [Example 1.125], the IC50 was in the range of 0.75 to 2 µM.

`CCOc1cc(NC(=O)[C@@H](CO)C(C)C)ccc1S(=O)(=O)Nc1ccc(OC)c(C(F)(F)F)c1` [Example 1.005]: the concentration for half-maximal inhibition (IC50) was ≤ 0.2 µM.

Consider `CCOc1cc(NC(=O)[C@@H](O)c2ccccc2)ccc1S(=O)(=O)Nc1cccc(OC(F)(F)F)c1` [Example 1.168], for which the IC50 was ≤ 0.2 µM.

In the case of `CCOc1cc(NC(=O)C(CO)C(C)C)ccc1S(=O)(=O)Nc1ccc(Cl)c(OC)c1` (stereo not drawn) [Example 1.018], the IC50 was ≤ 0.2 µM.

With `CCOc1cc(NC(=O)[C@@H](CO)C(C)C)ccc1S(=O)(=O)Nc1cccc(OC(F)(F)F)c1C` [Example 1.101], the IC50 lay within 2 to 20 µM.

In the case of `CCOc1cc(NC(=O)[C@@H](CO)C(C)C)ccc1S(=O)(=O)Nc1cccc(Cl)c1Cl` [Example 1.054], the IC50 is 0.2 to 0.75 µM.

For the molecule `CCOc1cc(NC(=O)[C@@H](O)C(C)C)ccc1S(=O)(=O)Nc1cccc(C(C)C)c1` [Example 1.263], the IC50 was ≤ 0.2 µM.

With `CCOc1cc(NC(=O)C2CCN(C(C)=O)CC2)ccc1S(=O)(=O)Nc1cccc(OC(F)(F)F)c1` [Example 1.161], the IC50 is 2 to 20 µM.

Consider `COc1cc(NC(=O)[C@H]2CCCC[C@H]2O)ccc1S(=O)(=O)Nc1cccc(OC(F)(F)F)c1` [Example 1.111], for which the half-maximal inhibitory concentration (IC50) is 0.2 to 0.75 µM.

As for `COc1cc(NC(=O)c2ccnn2C)ccc1S(=O)(=O)Nc1ccc(C#N)cc1` [Example 1.491], the IC50 lay within 2 to 20 µM.

With `CCOc1cc(NC(=O)[C@@H](CO)C(C)C)ccc1S(=O)(=O)Nc1cccc(C(C)C)c1` [Example 1.155], the IC50 was ≤ 0.2 µM.

With `CCOc1cc(NC(=O)C(CC2CC2)C(=O)O)ccc1S(=O)(=O)Nc1cccc(OC(F)(F)F)c1` (stereo not drawn) [Example 1.013], the IC50 was ≤ 0.2 µM.

Regarding `CCOc1cc(NC(=O)C2CCCCN2)ccc1S(=O)(=O)Nc1cccc(OC(F)(F)F)c1` (stereo not drawn) [Example 1.300], the IC50 lay within 0.2 to 0.75 µM.

For `Cc1cc(NC(=O)c2ccccc2F)ccc1S(=O)(=O)Nc1cccc(C(F)(F)F)c1` [Example 1.070], the IC50 lay within 2 to 20 µM.

Consider `CCOc1cc(NC(=O)C(O)C2C=CCCC2)ccc1S(=O)(=O)Nc1cccc(OC(F)(F)F)c1` (stereo not drawn) [Example 1.246], for which the IC50 was ≤ 0.2 µM.

Consider `Cc1cc(NC(=O)C2CCOCC2)ccc1S(=O)(=O)Nc1cccc(C(F)(F)F)c1` [Example 1.500], for which the half-maximal inhibitory concentration (IC50) fell in the range of 0.2 to 0.75 µM.

For `CCOc1cc(NC(=O)[C@@H](O)C(C)C)ccc1S(=O)(=O)Nc1ccc(C)c(CC)c1` [Example 1.402], the IC50 is ≤ 0.2 µM.

Turning to `Cc1cc(NC(=O)c2cnco2)ccc1S(=O)(=O)Nc1cccc(C(F)(F)F)c1` [Example 1.252], the half-inhibitory concentration (IC50) was in the range of 0.75 to 2 µM.

Regarding `CCOc1cc(NC(=O)[C@H]2CC=CC[C@H]2O)ccc1S(=O)(=O)Nc1cccc(OC(F)(F)F)c1` [Example 1.173], the IC50 lay within 0.2 to 0.75 µM.

In the case of `COc1cc(NC(=O)c2ccnn2C)ccc1S(=O)(=O)Nc1ccc(Cl)c(Cl)c1` [Example 1.247], the IC50 lay in the range of 0.75 to 2 µM.

With `CCOc1cc(NC(=O)[C@H]2CCOC[C@@H]2COC)ccc1S(=O)(=O)Nc1cccc(OC(F)(F)F)c1` (racemic) [Example 1.237], the IC50 is 0.2 to 0.75 µM.

Consider `CCOc1cc(NC(=O)c2ccnn2C)ccc1S(=O)(=O)Nc1cccc(OC(F)(F)F)c1` [Example 1.157], for which the IC50 was ≤ 0.2 µM.

With `CCOc1cc(NC(=O)[C@@H](O)C(C)C)ccc1S(=O)(=O)Nc1ccc(C)c(F)c1` [Example 1.195], the IC50 was 0.2 to 0.75 µM.

With `COc1cc(S(=O)(=O)Nc2cccc(C(F)(F)F)c2)c(C)cc1NC(C)=O` [Example 1.354], the half-inhibitory concentration (IC50) was 2 to 20 µM.

For `Cc1cc(NC(=O)c2ccccn2)ccc1S(=O)(=O)Nc1cccc(C(F)(F)F)c1` [Example 1.098], the IC50 fell in the range of 2 to 20 µM.

With `CCOc1cc(NC(=O)C2(O)CC2)ccc1S(=O)(=O)Nc1cccc(OC(F)(F)F)c1` [Example 1.318], the IC50 lay within 0.75 to 2 µM.

For the molecule `CCOc1cc(NC(=O)[C@@H](O)c2ccccc2Cl)ccc1S(=O)(=O)Nc1cccc(OC(F)(F)F)c1` [Example 1.276], the 50% inhibitory concentration (IC50) was ≤ 0.2 µM.

Regarding `COc1cc(NC(=O)[C@@H]2CCC[C@H]2NC(=O)OC(C)(C)C)ccc1S(=O)(=O)Nc1cccc(C(F)(F)F)c1` [Example 1.426], the IC50 fell in the range of 2 to 20 µM.

For the molecule `CCOc1cc(NC(=O)CC(O)c2cccnc2)ccc1S(=O)(=O)Nc1cccc(OC(F)(F)F)c1` (stereo not drawn) [Example 1.236], the concentration for half-maximal inhibition (IC50) lay within 0.75 to 2 µM.

In the case of `Cn1nccc1C(=O)Nc1ccc(S(=O)(=O)Nc2cccc(C(F)(F)F)c2)c(Br)c1` [Example 1.351], the concentration for half-maximal inhibition (IC50) was 0.2 to 0.75 µM.

As to `CCOc1cc(NC(=O)[C@H]2[C@H](C)COC[C@@H]2C)ccc1S(=O)(=O)Nc1cccc(OC(F)(F)F)c1` [Example 1.305], the concentration for half-maximal inhibition (IC50) was ≤ 0.2 µM.

Take `COc1cc(NC(=O)C2CCCCO2)ccc1S(=O)(=O)Nc1cccc(C(F)(F)F)c1` (stereo not drawn) [Example 1.572]: the IC50 lay in the range of 0.75 to 2 µM.

`Cc1cc(NC(=O)C(C)(C)C)ccc1S(=O)(=O)Nc1cccc(C(F)(F)F)c1` [Example 1.434]: the half-maximal inhibitory concentration (IC50) lay in the range of 2 to 20 µM.

With `CC(C)Oc1cc(NC(=O)c2ccns2)ccc1S(=O)(=O)Nc1cccc(C(F)(F)F)c1` [Example 1.542], the IC50 was in the range of 2 to 20 µM.

For `COc1cc(NC(=O)CC2CCCCCC2)ccc1S(=O)(=O)Nc1cccc(C(F)(F)F)c1` [Example 1.419], the IC50 was in the range of 2 to 20 µM.

With `CCOc1cc(NC(=O)[C@@H](CO)C(C)C)ccc1S(=O)(=O)Nc1cccc(C(F)(F)F)c1` [Example 1.062], the half-inhibitory concentration (IC50) was ≤ 0.2 µM.

With `COc1cc(NC(=O)C2=C(C)OCCC2)ccc1S(=O)(=O)Nc1cccc(OC(F)(F)F)c1` [Example 1.525], the half-inhibitory concentration (IC50) lay in the range of 0.2 to 0.75 µM.

On to `CCOc1cc(NC(=O)Cc2ccccc2)ccc1S(=O)(=O)Nc1cccc(OC(F)(F)F)c1` [Example 1.097], for which the IC50 was ≤ 0.2 µM.

Regarding `CCOc1cc(NC(=O)c2cc(=O)n(C)cc2C)ccc1S(=O)(=O)Nc1cccc(OC(F)(F)F)c1` [Example 1.126], the concentration for half-maximal inhibition (IC50) was ≤ 0.2 µM.

On to `CCOc1cc(NC(=O)C(O)c2cccc(C(F)(F)F)c2)ccc1S(=O)(=O)Nc1cccc(OC(F)(F)F)c1` (stereo not drawn) [Example 1.327], for which the IC50 is ≤ 0.2 µM.

With `CCOc1cc(NC(=O)[C@H]2CC=CC[C@@H]2C(=O)O)ccc1S(=O)(=O)Nc1ccc(C)c(OC(F)(F)F)c1` (racemic) [Example 1.167], the IC50 was in the range of 2 to 20 µM.
